Where a name gives a salt, the structure may show the parent alone.
Legend:
Assay type in all cases: biochemical
Human recombinant MMP-9 = target: T1, Human recombinant MMP-9 (Homo sapiens, UniProt P14780); assay: In vitro MMP inhibition, IC50 determination (fluorogenic substrate I)
T1 construct: made in house; host or cells: MMP-9-transfected HT1080 cells (spent media)
How it was run: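 MMP-9 proenzyme purified from transfected HT1080 cell media, activated with APMA or trypsin. Compound dilutions in pH 7.5 Tris/NaCl/CaCl2 buffer with 0.05% polyoxyethylene 23 lauryl ether, incubated at room temperature with 4 μM MCA/Dpa substrate I. IC50 from fluorescence loss (ex 328, em 415 nm) versus inhibitor concentration.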

Human recombinant MMP-1 = target: T2, Human recombinant MMP-1 (Homo sapiens, UniProt P03956); assay: as above
T2 construct: made in house; host or cells: MMP-1-transfected HT-1080 cells (spent media)
T2 sequence (P03956 100-469): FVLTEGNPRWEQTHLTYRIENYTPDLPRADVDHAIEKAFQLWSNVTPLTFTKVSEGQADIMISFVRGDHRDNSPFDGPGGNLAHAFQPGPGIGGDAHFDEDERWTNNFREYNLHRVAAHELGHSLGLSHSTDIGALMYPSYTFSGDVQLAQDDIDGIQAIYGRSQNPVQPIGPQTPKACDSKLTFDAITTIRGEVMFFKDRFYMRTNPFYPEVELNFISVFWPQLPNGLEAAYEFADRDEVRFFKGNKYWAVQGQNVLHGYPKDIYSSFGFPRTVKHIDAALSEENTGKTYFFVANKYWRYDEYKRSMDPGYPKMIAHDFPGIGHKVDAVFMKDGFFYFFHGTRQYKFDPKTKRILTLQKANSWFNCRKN
How it was run: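 APMA- or trypsin-activated enzyme, purified from spent media of transfected HT-1080 cells, incubated at room temperature with 4 μM MCA-Pro-Leu-Gly-Leu-Dpa-Ala-Arg-NH2 and graded inhibitor in Tris buffer pH 7.5 (10 mM CaCl2, 0.05% Brij). Cleavage read by fluorescence (ex 328/em 415 nm); IC50 from fluorescence reduction versus inhibitor concentration.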

Human recombinant MMP-13 = target: T3, Human recombinant MMP-13 (Homo sapiens, UniProt P45452); assay: In vitro MMP inhibition, Ki determination (fluorogenic substrate II)
T3 construct: made in house; host or cells: baculovirus / insect cells
Protocol: Several hydroxamates and salts thereof were analyzed in in vitro assays to determine their ability to inhibit the MMP cleavage of peptide substrates. Inhibition (Ki) and IC50 constants were calculated from the assayed hydroxamate-MMP interactions.
Human recombinant MMP-1, MMP-2, MMP-9, MMP-13, and MMP-14 were used in this assay. All enzymes were prepared in Assignee's laboratories following usual laboratory procedures. Protocols for the preparation and use of these enzymes are available in the scientific literature. See, e.g., Enzyme Nomenclature (Academic Press, San Diego, Calif., 1992) (and the citations therein). See also, Frije et al., J. Biol. Chem., 26(24), 16766-73 (1994).
The expressed proenzyme was first purified over a heparin agarose column, and then over a chelating zinc chloride column. The proenzyme was then activated by APMA for use in the assay. Further details on baculovirus expression systems may be found in, for example, Luckow et al., J. Virol., 67, 4566-79 (1993). See also, O'Reilly et al, Baculovirus Expression Vectors: A Laboratory Manual (W. H. Freeman and Co., New York, N.Y., 1992). See also, King et al., The Baculovirus Expression System: A Laboratory Guide (Chapman & Hall, London, England, 1992).
All MMPs were activated using 4-aminophenylmercuric acetate (“APMA”, Sigma Chemical, St. Louis, Mo.) or trypsin. MMP-9 also was activated using human recombinant MMP-3 (purified in Assignee's laboratory following standard cloning and purification techniques).
Two fluorogenic, methoxycoumarin-containing polypeptide substrates were used in the MMP inhibition assays:
MCA-ArgProLeuGlyLeuDpaAlaArgGluArgNH2 (II)
Here, “Dpa” is 3-(2,4-dinitrophenyl)-L-2,3-diaminopropionyl group, and “MCA” is 7-methoxycoumarin-4-yl acetyl. Substrate (I) was purchased from Baychem (Redwood City, Calif.), and substrate II was prepared Assignee's laboratory. Substrate I was used in the IC50 determination assays, while substrate II was used in the Ki determination assays. In the absence of MMP inhibitory activity, either substrate is cleaved at the Gly-Leu peptide bond. This cleavage separates the highly fluorogenic peptide from the 2,4-dinitrophenyl quencher, thus resulting in increase of fluorescent intensity.
The stock solutions of the assayed hydroxamates (or salts thereof) were prepared in 1% dimethyl sulfoxide (DMSO). These stock solutions were diluted in Buffer A (100 mM Tris-HCl, 100 mM NaCl, 10 mM CaCl2, 0.05% polyoxyethylene 23 lauryl ether, pH 7.5) to obtain solutions with different hydroxamate concentrations, i.e., assay solutions with different concentrations of the assayed MMP inhibitory compound. The experiment controls contained the same amount of Buffer A/DMSO as the assayed sample, but contained no hydroxamate (or salt thereof).
The assays from which the Ki determinations were made were performed as follows. The assayed hydroxamate samples were incubated in separate wells of untreated white polystyrene plates (Nunc Nalgene International, Rochester, N.Y.), and analyzed on a Tecan SpectraFlour Plus plate reader. The excitation wavelength was 330 nm, and the emission wavelength—420 nm. All samples (assayed hydroxamates and controls) were incubated in separate plate wells at room temperature for 1 hr in the presence of 4 μM of MMP substrate (II). In the absence of MMP inhibitory activity, substrate II was cleaved at the Gly-Leu bond resulting in an increase of relative fluorescence. Inhibition was observed as a reduced rate of this increase in relative fluorescence. The various hydroxamates were analyzed using a single low enzyme concentration with a single substrate concentration fixed at or below the Km. This protocol is a modification of method by Knight et al., FEBS Lett., 296(3), 263-266 (1992). Apparent inhibitory constants were determined by non-linear regression of reaction velocity as a function of inhibitor and enzyme concentration using Morrison's equation, as described by Kuzmic, Anal. Biochem. 286, 45-50 (2000). […]

[1] = substrate (I) 4 μM, room temperature, values not in parenthesis
[2] = substrate (II) 4 μM, 1 hr room temperature, apparent Ki, values in parenthesis

T1 sequence (P14780 107-707 limits assumed): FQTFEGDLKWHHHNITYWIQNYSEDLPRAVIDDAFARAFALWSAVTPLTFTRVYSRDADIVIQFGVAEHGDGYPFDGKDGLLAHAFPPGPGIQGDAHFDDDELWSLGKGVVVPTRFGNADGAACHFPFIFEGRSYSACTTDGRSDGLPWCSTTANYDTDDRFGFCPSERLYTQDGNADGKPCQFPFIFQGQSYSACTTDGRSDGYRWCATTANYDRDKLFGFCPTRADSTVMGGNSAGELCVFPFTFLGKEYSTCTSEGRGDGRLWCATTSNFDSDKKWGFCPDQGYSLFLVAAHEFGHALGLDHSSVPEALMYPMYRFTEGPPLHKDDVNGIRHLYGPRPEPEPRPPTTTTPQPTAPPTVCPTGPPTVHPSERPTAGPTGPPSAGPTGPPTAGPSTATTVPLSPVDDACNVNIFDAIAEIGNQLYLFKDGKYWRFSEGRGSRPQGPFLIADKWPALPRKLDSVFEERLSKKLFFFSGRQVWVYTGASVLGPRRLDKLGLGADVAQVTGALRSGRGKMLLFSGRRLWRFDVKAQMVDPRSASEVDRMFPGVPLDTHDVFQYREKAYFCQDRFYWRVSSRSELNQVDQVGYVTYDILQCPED

IC50 (Human recombinant MMP-9; value outside parenthesis)	IC50 (Human recombinant MMP-1; value outside parenthesis)	Ki (Human recombinant MMP-13; value in parenthesis)	Compound	other results
			O=C(NO)C1(S(=O)(=O)c2ccc(OCCCn3nnc(-c4ccc(OC(F)(F)F)cc4)n3)cc2)CCN(C2CC2)CC1 [Example 49]	IC50 (Human recombinant MMP-9; [1]): 4060 nM; IC50 (Human recombinant MMP-1; [1]): > 10000 nM; Ki (Human recombinant MMP-13; [2]): 0.439 nM
> 10000 nM	> 10000 nM	2.24 nM	O=C(NO)C1(S(=O)(=O)c2ccc(OCCc3cccc(-c4ccccc4F)c3)cc2)CCOCC1 [Example 115]	
			O=C(NO)C1(S(=O)(=O)c2ccc(OCCCc3cccc(-c4ccc(F)cc4F)c3)cc2)CCOCC1 [Example 630]	IC50 (Human recombinant MMP-9; value outside parentheses): 5990 nM; IC50 (Human recombinant MMP-1; value outside parentheses): > 10000 nM; Ki (Human recombinant MMP-13; value in parentheses): 6.02 nM
3630 nM	> 10000 nM	1.49 nM	CN(C(=O)CCCOc1ccc(S(=O)(=O)C2(C(=O)NO)CCOCC2)cc1)c1ccc(OC(F)(F)F)cc1 [Example 249]	
			COCCN1CCC(C(=O)NO)(S(=O)(=O)c2ccc(OCCCc3nc(-c4ccc(OC(F)(F)F)cc4)no3)cc2)CC1 [Example 42]	IC50 (Human recombinant MMP-9; [1]): 382 nM; IC50 (Human recombinant MMP-1; [1]): > 10000 nM; Ki (Human recombinant MMP-13; [2]): 0.486 nM
7300 nM	> 10000 nM	2.01 nM	COCCN1CCC(C(=O)NO)(S(=O)(=O)c2ccc(OCCCc3nc(-c4ccc(CC(C)C)cc4)no3)cc2)CC1 [Example 175]	
432 nM	> 10000 nM	0.37 nM	O=C(NO)C1(S(=O)(=O)c2ccc(OCCCc3ccnc(-c4ccccc4)c3)cc2)CCOCC1 [Example 197]	
			O=C(NO)C1(S(=O)(=O)c2ccc(OCCCc3cccc(-c4ccc5c(c4)OCO5)c3)cc2)CCOCC1 [Example 628]	IC50 (Human recombinant MMP-9; value outside parentheses): 1750 nM; IC50 (Human recombinant MMP-1; value outside parentheses): > 10000 nM; Ki (Human recombinant MMP-13; value in parentheses): 19.8 nM
			CCN1CCC(C(=O)NO)(S(=O)(=O)c2ccc(OCCCc3nc(-c4ccc(OC(F)(F)F)cc4)no3)cc2)CC1 [Example 41, 1-ethyl-N-hydroxy 4-{[4-(3-{3-[4-(trifluoromethoxy)phenyl]-1,2,4-oxadiazol-5-yl}propoxy)phenyl]sulfonyl}piperidine-4-carboxamide Hydrochloride]	IC50 (Human recombinant MMP-9; [1]): 1600 nM; IC50 (Human recombinant MMP-1; [1]): > 10000 nM; Ki (Human recombinant MMP-13; [2]): 1.06 nM
963 nM	2940 nM	0.17 nM	O=C(NO)C1(S(=O)(=O)c2ccc(OCCc3cccc(-c4cccnc4)c3)cc2)CCOCC1 [Example 125]	
2420 nM	> 10000 nM	9.15 nM	O=C(NO)C1(S(=O)(=O)c2ccc(OCCCc3cccc(Cc4ccccc4)c3)cc2)CCOCC1 [Example 98]	
			CCN1CCC(C(=O)NO)(S(=O)(=O)c2ccc(OCCCSc3nc4ccccc4s3)cc2)CC1 [Example 591]	IC50 (Human recombinant MMP-9; value outside parentheses): 12 nM; IC50 (Human recombinant MMP-1; value outside parentheses): > 10000 nM; Ki (Human recombinant MMP-13; value in parentheses): 0.19 nM
			O=C(NO)C1(S(=O)(=O)c2ccc(OCCCc3cccc(-c4cccs4)c3)cc2)CCOCC1 [Example 595]	IC50 (Human recombinant MMP-9; value outside parentheses): 1730 nM; IC50 (Human recombinant MMP-1; value outside parentheses): > 10000 nM; Ki (Human recombinant MMP-13; value in parentheses): 7.25 nM
> 10000 nM	> 10000 nM	16.2 nM	Cc1ccc(-c2cccc(CCOc3ccc(S(=O)(=O)C4(C(=O)NO)CCOCC4)cc3)c2)cc1 [Example 127]	

— patent US20040024024A1, “Aromatic sulfone hydroxamates and their use as protease inhibitors” (priority 2001, published 2004)
